Our source for the MIC values is patent US20210267953A1, “SUBSTITUTED OXAZOLIDINONES FOR THE TREATMENT OF MAMMALIAN INFECTIONS” (CADILA HEALTHCARE LIMITED, priority 2018, published 2021).

≈ marks a conversion by molar mass, not a printed value.

For this assay, the system named is Mycobacterium tuberculosis H37Rv. Nature of the assay: Minimum Inhibitory Concentration (MIC) determination, MABA assay. The format is cell-based. The note with it: Microplate Alamar Blue Assay, M. tuberculosis H37Rv log phase culture in 7H-9 medium, 7 days at 37° C., lowest concentration that prevents colour change blue to pink, read-out: Mtb MIC. (In general: The colour change of resazurin is a common sign of viable cells or microbes.)

With `O=C1O[C@@H](Cn2ccnn2)CN1c1cc(F)c(N2CCC3(CC2)CS(=O)(=O)C3)c(F)c1` [Example 1, (R)-5-((1H-1,2,3-triazol-1-yl)methyl)-3-(4-(2,2-dioxido-2-thia-7-azaspiro[3.5]nonan-7-yl)-3,5-difluorophenyl)oxazolidin-2-one], the MIC turned out to be 1.25 µM (≈ 0.567 µg/mL).
With `O=C1O[C@@H](CNc2ccon2)CN1c1cc(F)c(N2CCC3(CC2)CS(=O)(=O)C3)c(F)c1` [Example 2, (S)-3-(4-(2,2-dioxido-2-thia-7-azaspiro[3.5]nonan-7-yl)-3,5-difluorophenyl)-5-((isoxazol-3-ylamino)methyl)oxazolidin-2-one], the MIC was determined as 1.25 µM (≈ 0.586 µg/mL).
The figure for `CC(=O)NC[C@H]1CN(c2cc(F)c(N3CCC4(CC3)CS(=O)(=O)C4)c(F)c2)C(=O)O1` [Example 3, (S)—N-((3-(4-(2,2-dioxido-2-thia-7-azaspiro[3.5]nonan-7-yl)-3,5-difluorophenyl)-2-oxooxazolidin-5-yl)methyl)acetamide] is 1.25 µM (≈ 0.554 µg/mL); for `COC(=O)NC[C@H]1CN(c2cc(F)c(N3CCC4(CC3)CS(=O)(=O)C4)c(F)c2)C(=O)O1` [Example 4, (S)-methyl ((3-(4-(2,2-dioxido-2-thia-7-azaspiro[3.5]nonan-7-yl)-3,5-difluorophenyl)-2-oxooxazolidin-5-yl)methyl)carbamate] it is 1.25 µM (≈ 0.574 µg/mL).
Under `CC(=O)NC[C@H]1CN(c2ccc(N3CCC4(CC3)CS(=O)(=O)C4)c(F)c2)C(=O)O1` [Example 5, (S)—N-((3-(4-(2,2-dioxido-2-thia-7-azaspiro[3.5]nonan-7-yl)-3-fluorophenyl)-2-oxooxazolidin-5-yl)methyl)acetamide] stands 1.25 µM (≈ 0.532 µg/mL); under `CC(=O)NC[C@H]1CN(c2cc(F)c(N3CCC4(CC3)COC4)c(F)c2)C(=O)O1` [Example 6, (S)—N-((3-(3,5-difluoro-4-(2-oxa-7-azaspiro[3.5]nonan-7-yl)phenyl)-2-oxooxazolidin-5-yl)methyl)acetamide], 1.25 to 2.5 µM (≈ 0.494 to 0.989 µg/mL); under `CC(=O)NC[C@H]1CN(c2ccc(N3CCC4(CC3)COC4)c(F)c2)C(=O)O1` [Example 7, (S)—N-((3-(3-fluoro-4-(2-oxa-7-azaspiro[3.5]nonan-7-yl)phenyl)-2-oxooxazolidin-5-yl)methyl)acetamide], 2.5 µM (≈ 0.944 µg/mL).
Under `CC(=O)NC[C@H]1CN(c2cc(F)c(N3CCC(C4COC4)CC3)c(F)c2)C(=O)O1` [Example 8, (S)—N-((3-(3,5-difluoro-4-(4-(oxetan-3-yl)piperidin-1-yl)phenyl)-2-oxooxazolidin-5-yl)methyl)acetamide] stands 2.5 µM (≈ 1.02 µg/mL).
`CC(=O)NC[C@H]1CN(c2cc(F)c(N3CCC(C4CS(=O)(=O)C4)CC3)c(F)c2)C(=O)O1` [Example 9, (S)—N-((3-(4-(4-(1,1-dioxidothietan-3-yl)piperidin-1-yl)-3,5-difluorophenyl)-2-oxooxazolidin-5-yl)methyl)acetamide]: the MIC was 1.25 µM (≈ 0.572 µg/mL).
The figure for `CC(=O)NC[C@H]1CN(c2ccc(N3CCC(C4CS(=O)(=O)C4)CC3)c(F)c2)C(=O)O1` [Example 10, (S)—N-((3-(4-(4-(1,1-dioxidothietan-3-yl)piperidin-1-yl)-3-fluorophenyl)-2-oxooxazolidin-5-yl)methyl)acetamide] is 2.5 µM (≈ 1.1 µg/mL).

Usually MIC stands for the lowest concentration that inhibits growth of the organism.
